According to patent US20250109140A1, “5-[5-(PIPERIDIN-4-YL)THIENO[3,2-C]PYRAZOL-2-YL]INDAZOLE DERIVATIVES AND RELATED COMPOUNDS AS MODULATORS FOR SPLICING NUCLEIC ACIDS AND FOR THE TREATMENT OF PROLIFERATIVE DISEASES” (REMIX THERAPUTICS INC., priority 2022, published 2025):
Where two headings read alike, the source gives them in different places.

Experiments:
HiBiT-tagged MYB protein = experiment: HiBiT protein abundance assay, MYB (K562 HiBiT knock-in cells); format: cell-based, human; conditions: 24 hours treatment
Summary of the method: (§1)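 K562 cells carrying endogenous HiBiT-tagged targets were treated 24 h at 37 °C with 10-point 3-fold dilutions from 10 µM final (≤0.25% DMSO). Abundance read by lytic HiBiT luminescence, normalized to DMSO and unmodified-K562 controls; IC50 is the 4-parameter-fit concentration giving 50% of untreated signal.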

MYB mRNA = experiment: Splicing RT-qPCR assay, MYB canonical (CJ) and alternative (AJ) junction mRNA; format: cell-based; conditions: Homo sapiens; for EC50: AC50 = 50% response in AJ mRNA increase
Summary of the method: (§2)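 Junction-specific RT-qPCR read-out: CJ marks canonical transcript, AJ marks alternative-exon inclusion, each normalized to GAPDH, GUSB or PPIA. Cells (A673 or K562) were dosed for 24 h with compound up to 10 uM final in 11 3-fold steps. RQ from 2^(−ΔΔCt) against DMSO became percentage response.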

[1] = system: K562 (human chronic myelogenous leukemia) cells; experiment: Cell viability, Cell Titer Glo 2.0 assay, K562 cells; format: cell-based; conditions: 72 hours
Summary of the method: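 K562 cells seeded at 500 cells/well in IMDM + 10% FBS; compounds serially diluted in DMSO, then 1:100 in medium (final DMSO 0.1%). Incubated 72 h at 37° C, 5% CO2; viability read by Cell Titer Glo 2.0 luminescence against medium-only blank.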

SMN2 mRNA = experiment: Splicing RT-qPCR gene panel, SMN2 canonical junction (CJ) mRNA; format: cell-based; conditions: Homo sapiens; Table 8; larger gene panel, decrease in CJ mRNA levels
Summary of the method: as §2

Target C = experiment: HiBiT protein abundance assay, Target C (K562 HiBiT knock-in cells); format: cell-based, human; conditions: 24 hours treatment
Summary of the method: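 K562 HiBiT knock-in cells (10000/well) were treated 24 h at 37 °C with a 10-point 3-fold dilution series, top final concentration […], DMSO ≤0.25%. Target abundance was read by lytic HiBiT luminescence and normalized to unmodified K562 and DMSO controls. A four-parameter fit gave the concentration giving 50% of untreated abundance.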

Target C mRNA = experiment: Splicing RT-qPCR gene panel, Target C canonical junction (CJ) mRNA; format: cell-based; conditions: Homo sapiens; Table 8; larger gene panel, decrease in CJ mRNA levels
Summary of the method: as §2

HiBiT-tagged HTT protein = experiment: HiBiT protein abundance assay, HTT (K562 HiBiT knock-in cells); format: cell-based, human; conditions: 24 hours treatment
Summary of the method: as §1

HTT mRNA = experiment: Splicing RT-qPCR assay, HTT canonical (CJ) and alternative (AJ) junction mRNA; format: cell-based; conditions: Homo sapiens; for EC50: AC50 = 50% response in AJ mRNA increase
Summary of the method: as §2

[2] = Table 7, RT-qPCR, A673 or K562 cells, 24 hours treatment
[3] = Table 7, IC50 = 50% response in CJ mRNA decrease, RT-qPCR, A673 or K562 cells, 24 hours treatment, read-out: MYB CJ
[4] = Table 8, larger gene panel, decrease in CJ mRNA levels, read-out: MYB CJ IC50
[5] = Table 7, IC50 = 50% response in CJ mRNA decrease, RT-qPCR, A673 or K562 cells, 24 hours treatment, read-out: HTT CJ
[6] = Table 8, larger gene panel, decrease in CJ mRNA levels, read-out: HTT CJ IC50

SMILES | IC50 (HiBiT-tagged MYB protein) [nM] | EC50 (MYB mRNA; [2]) [nM] | IC50 (MYB mRNA; [3]) [nM] | IC50 (MYB mRNA; [4]) [nM] | IC50 [1] [nM] | IC50 (SMN2 mRNA) [nM] | IC50 (Target C) [nM] | IC50 (Target C mRNA) [nM] | IC50 (HiBiT-tagged HTT protein) [nM] | EC50 (HTT mRNA; [2]) [nM] | IC50 (HTT mRNA; [5]) [nM] | IC50 (HTT mRNA; [6]) [nM]
Cc1cn2cc(-n3cc4cc(C5CCNCC5)sc4n3)cc(C)c2n1 [Compound 155] | 100 to 1000 | 1000 to 10000 | 1000 to 10000 | 1000 to 10000 | 100 to 1000 | < 100 | 100 to 1000 | 1000 to 10000 | < 100 | 100 to 1000 | 100 to 1000 | 100 to 1000
Cc1cn2nc(-n3cc4sc(N5CCC(NC(C)(C)C)C5)cc4n3)cc(C)c2n1 (stereo not drawn) [Compound 189, N-tert-butyl-1-(2-{2,8-dimethylimidazo[1,2-b]pyridazin-6-yl}thieno[3,2-c]pyrazol-5-yl) pyrrolidin-3-amine] | > 10000 | > 10000 | > 10000 | > 10000 | 1000 to 10000 | 1000 to 10000 | > 10000 | > 10000 | > 10000 | > 10000 | > 10000 | > 10000
Cn1cc2c(F)cc(-n3cc4sc(C5CCNCC5)cc4n3)cc2n1 [Compound 175] | 1000 to 10000 | > 10000 | > 10000 | > 10000 | 1000 to 10000 | > 10000 | 1000 to 10000 | > 10000 | 1000 to 10000 | > 10000 | > 10000 | > 10000
Cn1cc2cc(-c3cc4cn(C5=CCOCC5)nc4s3)cc(F)c2n1 [Compound 177] | > 10000 | > 10000 | > 10000 | > 10000 | > 10000 | > 10000 | > 10000 | > 10000 | > 10000 | > 10000 | > 10000 | > 10000
CN1CCC(n2cc3cc(-c4cc(F)c5nn(C)cc5c4)sc3n2)CC1 [Compound 150, 7-fluoro-2-methyl-5-[2-(1-methylpiperidin-4-yl)thieno[2,3-c]pyrazol-5-yl]indazole] | 100 to 1000 | 100 to 1000 | 100 to 1000 | 100 to 1000 | 100 to 1000 | < 100 | 100 to 1000 | 100 to 1000 | < 100 | 100 to 1000 | 100 to 1000 | 100 to 1000

Further lines, results first:

IC50 (HiBiT-tagged MYB protein) [nM] | EC50 (MYB mRNA; [2]) [nM] | IC50 (MYB mRNA; [3]) [nM] | IC50 (MYB mRNA; [4]) [nM] | IC50 [1] [nM] | IC50 (SMN2 mRNA) [nM] | IC50 (Target C) [nM] | IC50 (Target C mRNA) [nM] | IC50 (HiBiT-tagged HTT protein) [nM] | EC50 (HTT mRNA; [2]) [nM] | IC50 (HTT mRNA; [5]) [nM] | IC50 (HTT mRNA; [6]) [nM] | SMILES
100 to 1000 | 100 to 1000 | 100 to 1000 | 100 to 1000 | 100 to 1000 | < 100 | < 100 | 100 to 1000 | < 100 | < 100 | < 100 | < 100 | Cc1cn2cc(-c3cc4cn(C5CCNCC5)nc4s3)cc(Cl)c2n1 [Compound 226]
100 to 1000 | 100 to 1000 | 100 to 1000 | 100 to 1000 | 100 to 1000 | < 100 | < 100 | 100 to 1000 | < 100 | < 100 | < 100 | < 100 | Cc1cc(-c2cc3cn(C4CCNCC4)nc3s2)cc2cn(C)nc12 [Compound 225]
1000 to 10000 | 1000 to 10000 | 1000 to 10000 | 1000 to 10000 | 1000 to 10000 | 1000 to 10000 | 1000 to 10000 | 1000 to 10000 | 1000 to 10000 | 1000 to 10000 | 1000 to 10000 | 1000 to 10000 | COc1c(-c2nc3cn(C4CCNCC4)nc3s2)cc2cn(C)nc2c1C [Compound 1103]
1000 to 10000 | 1000 to 10000 | 1000 to 10000 | 100 to 1000 | 1000 to 10000 | < 100 | 1000 to 10000 | 100 to 1000 | 100 to 1000 | 100 to 1000 | 100 to 1000 | < 100 | Cn1cc2cc(-c3nc4cn(C5CCNCC5)nc4s3)c(O)cc2n1 [Compound 1110]
